The structures appear in SMILES notation.

The test system of one assay is 11235 (donor line of iPSC-derived cardiomyocytes). In words: POD (EC05) for increase in beat frequency (positive chronotrope) vs vehicle; higher = less potent (higher point of departure). To be noted: exposure time: 90 min. As for the experimental part: (§1)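 Human iPSC-derived cardiomyocytes from 16 donors were exposed for 90 min at 37 °C to each PFAS at 0.1, 1, 10 and 100 µM in 0.5% DMSO, 384-well plates. Kinetic Ca2+ flux (FLIPR) and Hoechst nuclei counts were normalised to vehicle wells and fitted with a hierarchical Bayesian Hill model to give donor-specific PODs: EC05 for beat-rate increase or decrease and for decay-to-rise ratio increase (QT proxy), EC95 for peak-frequency loss (asystole), EC10 for total cell number loss. 0.03 µM is the lower bound.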
With `O=C(O)CCC(F)(F)C(F)(F)C(F)(F)C(F)(F)C(F)(F)C(F)(F)C(F)(F)F` [3-Perfluoroheptylpropanoic_acid], the POD vs vehicle is above 100 µM.
Same read-out and setting: under `O=C(O)CCC(F)(F)C(F)(F)C(F)(F)F` [3:3 Fluorotelomer carboxylic acid] stands above 100 µM; under `O=C(CC(=O)C(F)(F)C(F)(F)F)C(F)(F)F` [3H,3H-Perfluoro-2,4-hexanedione], above 100 µM.
`OCCC(F)(F)C(F)(F)C(F)(F)C(F)(F)F` [4:2 Fluorotelomer alcohol] gave a POD vs vehicle above 100 µM.
Compound `O=S(=O)(O)CCC(F)(F)C(F)(F)C(F)(F)C(F)(F)F` [4:2 Fluorotelomer sulfonic acid] registered a POD vs vehicle above 100 µM.
`O=C([O-])C(F)(F)C(F)(F)C(F)(F)C(F)(F)C(F)(F)C(F)(F)C(F)(F)F.[NH4+]` [Ammonium_perfluorooctanoate] showed a POD vs vehicle above 100 µM.
Turning to `OCC(F)(F)OC(F)(F)C(F)(F)OC(F)(F)C(F)(F)OC(F)(F)F` [Fluorinated_triethylene_glycol_monomethyl_ether], the POD vs vehicle is above 100 µM.
Regarding `O=S(=O)(O)C(F)(F)C(F)(F)C(F)(F)C(F)(F)F` [Perfluorobutanesulfonic_acid], the POD vs vehicle was above 100 µM.
`O=C(O)C(F)(F)C(F)(F)C(F)(F)C(F)(F)C(F)(F)C(F)(F)C(F)(F)C(F)(F)C(F)(F)C(F)(F)F` [Perfluoroundecanoic_acid] showed a POD vs vehicle above 100 µM.

Another assay concerns 1309 (donor line of iPSC-derived cardiomyocytes). Described as above. To be noted: exposure time: 90 min. On the procedure: as §1
`NC(=O)C(F)(F)C(F)(F)C(F)(F)C(F)F` showed a POD vs vehicle above 100 µM.
Compound `OCC(O)CC(F)(F)C(F)(F)C(F)(F)C(F)(F)C(F)(F)C(F)(F)C(F)(F)C(F)(F)F` (centres undefined) [1-(Perfluorofluorooctyl)propane-2,3-diol] returned a POD vs vehicle of 0.394 µM.
`CC(O)C(F)(F)C(F)(F)F` (centres undefined) [1-Pentafluoroethylethanol]: the POD vs vehicle was above 100 µM.
With `OCC(F)(F)C(F)(F)C(F)(F)C(F)F` [1H,1H,5H-Perfluoropentanol], the POD vs vehicle is above 100 µM.
The compound `O=S(=O)(OCC(F)(F)F)C(F)(F)C(F)(F)C(F)(F)C(F)(F)F` [2,2,2-Trifluoroethyl_perfluorobutanesulfonate] gave a POD vs vehicle above 100 µM.
As to `O=C(O)C(F)(F)C(F)(F)C(F)F` [2,2,3,3,4,4-Hexafluorobutanoic_acid], the POD vs vehicle was above 100 µM.
For the compound `NC(O)(C(F)(F)F)C(F)(F)F` [2-Aminohexafluoropropan-2-ol], the POD vs vehicle was above 100 µM.
On to `O=C(O)CCC(F)(F)C(F)(F)C(F)(F)C(F)(F)C(F)(F)F` [2H,2H,3H,3H-Perfluorooctanoic_acid], for which the POD vs vehicle was above 100 µM.
Consider `O=C(O)C=C(C(F)(F)F)C(F)(F)F` [3,3-Bis(trifluoromethyl)-2-propenoic_acid], for which the POD vs vehicle was above 100 µM.
Same read-out and setting: under `O=C(O)C=CC(F)(C(F)(F)F)C(F)(F)F` [3-(Perfluoroisopropyl)-2-propenoic_acid] stands above 100 µM; under `O=C(O)CCC(F)(F)C(F)(F)C(F)(F)C(F)(F)C(F)(F)C(F)(F)C(F)(F)F` [3-Perfluoroheptylpropanoic_acid], above 100 µM; under `O=C(O)CCC(F)(F)C(F)(F)C(F)(F)F` [3:3 Fluorotelomer carboxylic acid], above 100 µM.
`O=C(CC(=O)C(F)(F)C(F)(F)F)C(F)(F)F` [3H,3H-Perfluoro-2,4-hexanedione]: the POD vs vehicle was above 100 µM.
Still for that read-out and setting: under `OCCC(F)(F)C(F)(F)C(F)(F)C(F)(F)F` [4:2 Fluorotelomer alcohol] stands above 100 µM; under `O=S(=O)(O)CCC(F)(F)C(F)(F)C(F)(F)C(F)(F)F` [4:2 Fluorotelomer sulfonic acid], above 100 µM.
Turning to `O=C([O-])C(F)(F)C(F)(F)C(F)(F)C(F)(F)C(F)(F)C(F)(F)C(F)(F)F.[NH4+]` [Ammonium_perfluorooctanoate], the POD vs vehicle was above 100 µM.
`OCC(F)(F)OC(F)(F)C(F)(F)OC(F)(F)C(F)(F)OC(F)(F)F` [Fluorinated_triethylene_glycol_monomethyl_ether] gave a POD vs vehicle above 100 µM.
`CN(CCO)S(=O)(=O)C(F)(F)C(F)(F)C(F)(F)C(F)(F)C(F)(F)C(F)(F)C(F)(F)C(F)(F)F` [N-Methyl-N-(2-hydroxyethyl)perfluorooctanesulfonamide] displayed a POD vs vehicle above 100 µM.
In turn, `O=S(=O)(O)C(F)(F)C(F)(F)C(F)(F)C(F)(F)F` [Perfluorobutanesulfonic_acid] had a POD vs vehicle above 100 µM.
Compound `O=C(O)C(F)(F)C(F)(F)C(F)(F)C(F)(F)C(F)(F)C(F)(F)C(F)(F)C(F)(F)C(F)(F)C(F)(F)F` [Perfluoroundecanoic_acid] gave a POD vs vehicle above 100 µM.

The next assay relates to 1368 (donor line of iPSC-derived cardiomyocytes). The description is as above. To be noted: exposure time: 90 min. As for the experimental part: as §1
In the case of `NC(=O)C(F)(F)C(F)(F)C(F)(F)C(F)F`, the POD vs vehicle is above 100 µM.
`OCC(O)CC(F)(F)C(F)(F)C(F)(F)C(F)(F)C(F)(F)C(F)(F)C(F)(F)C(F)(F)F` (centres undefined) [1-(Perfluorofluorooctyl)propane-2,3-diol] gave a POD vs vehicle above 100 µM.
On the same count and under the same terms, as for `CC(O)C(F)(F)C(F)(F)F` (centres undefined) [1-Pentafluoroethylethanol], the figure is above 100 µM.
In the case of `OCC(F)(F)C(F)(F)C(F)(F)C(F)F` [1H,1H,5H-Perfluoropentanol], the POD vs vehicle is above 100 µM.
As to `O=S(=O)(OCC(F)(F)F)C(F)(F)C(F)(F)C(F)(F)C(F)(F)F` [2,2,2-Trifluoroethyl_perfluorobutanesulfonate], the POD vs vehicle was above 100 µM.
`O=C(O)C(F)(F)C(F)(F)C(F)F` [2,2,3,3,4,4-Hexafluorobutanoic_acid] showed a POD vs vehicle above 100 µM.
`NC(O)(C(F)(F)F)C(F)(F)F` [2-Aminohexafluoropropan-2-ol] yielded a POD vs vehicle above 100 µM.
In the case of `O=C(O)CCC(F)(F)C(F)(F)C(F)(F)C(F)(F)C(F)(F)F` [2H,2H,3H,3H-Perfluorooctanoic_acid], the POD vs vehicle is above 100 µM.
The same measure, in the same setting: under `O=C(O)C=C(C(F)(F)F)C(F)(F)F` [3,3-Bis(trifluoromethyl)-2-propenoic_acid] stands above 100 µM; under `O=C(O)C=CC(F)(C(F)(F)F)C(F)(F)F` [3-(Perfluoroisopropyl)-2-propenoic_acid], above 100 µM; under `O=C(O)CCC(F)(F)C(F)(F)C(F)(F)C(F)(F)C(F)(F)C(F)(F)C(F)(F)F` [3-Perfluoroheptylpropanoic_acid], above 100 µM.
The same measure, in the same setting: as for `O=C(O)CCC(F)(F)C(F)(F)C(F)(F)F` [3:3 Fluorotelomer carboxylic acid], the figure is above 100 µM; as for `O=C(CC(=O)C(F)(F)C(F)(F)F)C(F)(F)F` [3H,3H-Perfluoro-2,4-hexanedione], above 100 µM; as for `OCCC(F)(F)C(F)(F)C(F)(F)C(F)(F)F` [4:2 Fluorotelomer alcohol], above 100 µM.
For `O=S(=O)(O)CCC(F)(F)C(F)(F)C(F)(F)C(F)(F)F` [4:2 Fluorotelomer sulfonic acid], the POD vs vehicle was above 100 µM.
On to `O=C([O-])C(F)(F)C(F)(F)C(F)(F)C(F)(F)C(F)(F)C(F)(F)C(F)(F)F.[NH4+]` [Ammonium_perfluorooctanoate], for which the POD vs vehicle is above 100 µM.
In turn, `OCC(F)(F)OC(F)(F)C(F)(F)OC(F)(F)C(F)(F)OC(F)(F)F` [Fluorinated_triethylene_glycol_monomethyl_ether] displayed a POD vs vehicle above 100 µM.
Compound `CN(CCO)S(=O)(=O)C(F)(F)C(F)(F)C(F)(F)C(F)(F)C(F)(F)C(F)(F)C(F)(F)C(F)(F)F` [N-Methyl-N-(2-hydroxyethyl)perfluorooctanesulfonamide] gave a POD vs vehicle above 100 µM.
Compound `O=S(=O)(O)C(F)(F)C(F)(F)C(F)(F)C(F)(F)F` [Perfluorobutanesulfonic_acid] had a POD vs vehicle above 100 µM.
Still for that read-out and setting: as for `O=C(O)C(F)(F)C(F)(F)C(F)(F)C(F)(F)C(F)(F)C(F)(F)C(F)(F)C(F)(F)C(F)(F)C(F)(F)F` [Perfluoroundecanoic_acid], the figure is above 100 µM.

Values taken from the supplement of paper PMC11368000.
